Assay results published in PubChem BioAssay (NCI).
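Method: 48-hour compound exposure of cells in 96-well plates, five concentrations, linear interpolation of endpoints. TGI is the concentration that stops growth completely.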

What was measured:
Assay in all cases: DTP human tumour cell line panel, 48 h
SF-268 CNS = tested on: SF-268 CNS
KM20L2 colon = tested on: KM20L2 colon
DMS 114 small cell lung = tested on: DMS 114 small cell lung
XF 498 CNS = tested on: XF 498 CNS
SW-620 colon = tested on: SW-620 colon
786-0 renal = tested on: 786-0 renal
SR leukemia = tested on: SR leukemia
OVCAR-5 ovarian = tested on: OVCAR-5 ovarian
HL-60(TB) leukemia = tested on: HL-60(TB) leukemia
HOP-62 NSCLC = tested on: HOP-62 NSCLC
EKVX NSCLC = tested on: EKVX NSCLC
SK-MEL-5 melanoma = tested on: SK-MEL-5 melanoma
DLD-1 colon = tested on: DLD-1 colon
HOP-92 NSCLC = tested on: HOP-92 NSCLC
TK-10 renal = tested on: TK-10 renal
SK-MEL-28 melanoma = tested on: SK-MEL-28 melanoma
UO-31 renal = tested on: UO-31 renal
SN12C renal = tested on: SN12C renal
SF-295 CNS = tested on: SF-295 CNS
HT29 colon = tested on: HT29 colon
NCI-H460 lung = tested on: NCI-H460 lung
OVCAR-4 ovarian = tested on: OVCAR-4 ovarian
NCI-H522 lung = tested on: NCI-H522 lung
RXF-631 renal = tested on: RXF-631 renal
M14 melanoma = tested on: M14 melanoma
OVCAR-8 ovarian = tested on: OVCAR-8 ovarian
SNB-19 CNS = tested on: SNB-19 CNS
LXFL 529 NSCLC = tested on: LXFL 529 NSCLC
KM12 colon = tested on: KM12 colon
CAKI-1 renal = tested on: CAKI-1 renal
UACC-62 melanoma = tested on: UACC-62 melanoma
CCRF-CEM leukemia = tested on: CCRF-CEM leukemia
HCT-116 colon = tested on: HCT-116 colon
UACC-257 melanoma = tested on: UACC-257 melanoma
M19-MEL melanoma = tested on: M19-MEL melanoma
ACHN renal = tested on: ACHN renal
IGROV1 ovarian = tested on: IGROV1 ovarian
HOP-18 NSCLC = tested on: HOP-18 NSCLC
SK-OV-3 ovarian = tested on: SK-OV-3 ovarian
DMS 273 small cell lung = tested on: DMS 273 small cell lung
HCC-2998 colon = tested on: HCC-2998 colon
SNB-75 CNS = tested on: SNB-75 CNS
HCT-15 colon = tested on: HCT-15 colon
OVCAR-3 ovarian = tested on: OVCAR-3 ovarian
NCI-H23 lung = tested on: NCI-H23 lung
A549 NSCLC = tested on: A549 NSCLC
LOX IMVI melanoma = tested on: LOX IMVI melanoma
RPMI-8226 leukemia = tested on: RPMI-8226 leukemia
U251 CNS = tested on: U251 CNS
MOLT-4 leukemia = tested on: MOLT-4 leukemia
A498 renal = tested on: A498 renal
SNB-78 CNS = tested on: SNB-78 CNS
SF-539 CNS = tested on: SF-539 CNS
NCI-H226 lung = tested on: NCI-H226 lung
MALME-3M melanoma = tested on: MALME-3M melanoma
SK-MEL-2 melanoma = tested on: SK-MEL-2 melanoma
RXF 393 renal = tested on: RXF 393 renal
COLO 205 colon = tested on: COLO 205 colon
K-562 leukemia = tested on: K-562 leukemia

CC1(C)CC(N(C(=O)/C=C/c2ccc([N+](=O)[O-])o2)C2CCCCC2)CC(C)(C)N1
TGI (SF-268 CNS): 20.5 µM | TGI (KM20L2 colon): 18.8 µM | TGI (DMS 114 small cell lung): 6.87 µM | TGI (XF 498 CNS): 23.5 µM | TGI (SW-620 colon): 6.01 µM | TGI (786-0 renal): 19.4 µM | TGI (SR leukemia): 21.2 µM | TGI (OVCAR-5 ovarian): 38.4 µM | TGI (HL-60(TB) leukemia): 6.4 µM | TGI (HOP-62 NSCLC): 34.5 µM | TGI (EKVX NSCLC): 27 µM | TGI (SK-MEL-5 melanoma): 21.8 µM | TGI (DLD-1 colon): 3.38 µM | TGI (HOP-92 NSCLC): 14.8 µM | TGI (TK-10 renal): 35.8 µM | TGI (SK-MEL-28 melanoma): 25.1 µM | TGI (UO-31 renal): 24.5 µM | TGI (SN12C renal): 18.9 µM | TGI (SF-295 CNS): 26.4 µM | TGI (HT29 colon): 15.4 µM | TGI (NCI-H460 lung): 13.9 µM | TGI (OVCAR-4 ovarian): 22.2 µM | TGI (NCI-H522 lung): 21.2 µM | TGI (RXF-631 renal): 23.4 µM | TGI (M14 melanoma): 9.54 µM | TGI (OVCAR-8 ovarian): 17.8 µM | TGI (SNB-19 CNS): 26.3 µM | TGI (LXFL 529 NSCLC): 17.8 µM | TGI (KM12 colon): 22.5 µM | TGI (CAKI-1 renal): 17.2 µM | TGI (UACC-62 melanoma): 21.6 µM | TGI (CCRF-CEM leukemia): 13.3 µM | TGI (HCT-116 colon): 12 µM | TGI (UACC-257 melanoma): 23.1 µM | TGI (M19-MEL melanoma): 16.9 µM | TGI (ACHN renal): 25.4 µM | TGI (IGROV1 ovarian): 29.1 µM | TGI (HOP-18 NSCLC): 37.4 µM | TGI (SK-OV-3 ovarian): 43.6 µM | TGI (DMS 273 small cell lung): 18 µM | TGI (HCC-2998 colon): 23.6 µM | TGI (SNB-75 CNS): 22.3 µM | TGI (HCT-15 colon): 20.2 µM | TGI (OVCAR-3 ovarian): 25.2 µM | TGI (NCI-H23 lung): 21.3 µM | TGI (A549 NSCLC): 29.7 µM | TGI (LOX IMVI melanoma): 25.4 µM | TGI (RPMI-8226 leukemia): 12.9 µM | TGI (U251 CNS): 18.1 µM | TGI (MOLT-4 leukemia): 18.2 µM | TGI (A498 renal): 30.6 µM | TGI (SNB-78 CNS): 26.5 µM | TGI (SF-539 CNS): 21.8 µM

CCCCCCCCCCC(C)CCCCCCC(=O)O (stereo not given)
TGI (SF-268 CNS): > 100 µM | TGI (DMS 114 small cell lung): > 100 µM | TGI (NCI-H226 lung): > 100 µM | TGI (SW-620 colon): > 100 µM | TGI (MALME-3M melanoma): > 100 µM | TGI (786-0 renal): > 100 µM | TGI (SR leukemia): > 100 µM | TGI (OVCAR-5 ovarian): > 100 µM | TGI (HL-60(TB) leukemia): > 100 µM | TGI (SK-MEL-2 melanoma): > 100 µM | TGI (RXF 393 renal): > 100 µM | TGI (HOP-62 NSCLC): > 100 µM | TGI (EKVX NSCLC): > 100 µM | TGI (SK-MEL-5 melanoma): > 100 µM | TGI (DLD-1 colon): > 100 µM | TGI (HOP-92 NSCLC): > 100 µM | TGI (TK-10 renal): > 100 µM | TGI (SK-MEL-28 melanoma): > 100 µM | TGI (UO-31 renal): > 100 µM | TGI (SN12C renal): > 100 µM | TGI (SF-295 CNS): > 100 µM | TGI (HT29 colon): > 100 µM | TGI (NCI-H460 lung): > 100 µM | TGI (OVCAR-4 ovarian): > 100 µM | TGI (NCI-H522 lung): > 100 µM | TGI (RXF-631 renal): > 100 µM | TGI (M14 melanoma): > 100 µM | TGI (OVCAR-8 ovarian): > 100 µM | TGI (SNB-19 CNS): > 100 µM | TGI (LXFL 529 NSCLC): > 100 µM | TGI (KM12 colon): > 100 µM | TGI (CAKI-1 renal): > 100 µM | TGI (UACC-62 melanoma): > 100 µM | TGI (CCRF-CEM leukemia): > 100 µM | TGI (HCT-116 colon): > 100 µM | TGI (UACC-257 melanoma): > 100 µM | TGI (M19-MEL melanoma): > 100 µM | TGI (ACHN renal): > 100 µM | TGI (IGROV1 ovarian): > 100 µM | TGI (HOP-18 NSCLC): > 100 µM | TGI (SK-OV-3 ovarian): > 100 µM | TGI (DMS 273 small cell lung): > 100 µM | TGI (COLO 205 colon): > 100 µM | TGI (HCC-2998 colon): > 100 µM | TGI (SNB-75 CNS): > 100 µM | TGI (HCT-15 colon): > 100 µM | TGI (OVCAR-3 ovarian): > 100 µM | TGI (NCI-H23 lung): > 100 µM | TGI (A549 NSCLC): > 100 µM | TGI (LOX IMVI melanoma): > 100 µM | TGI (RPMI-8226 leukemia): > 100 µM | TGI (U251 CNS): > 100 µM | TGI (MOLT-4 leukemia): > 100 µM | TGI (K-562 leukemia): > 100 µM | TGI (A498 renal): > 100 µM | TGI (SNB-78 CNS): > 100 µM | TGI (SF-539 CNS): > 100 µM
